# Data published in PubChem BioAssay AID328 (DTP/NCI, 2004).
# “And” between values parts separate entries of the source, which are not always exact repeats. Equal entries are not always repeated. Inconclusive results and toxic doses are left out.
# System: BDF1 mice, P388 leukemia ip, median survival T/C
# Experiment: NCI In Vivo Anticancer Drug Screen. Data for tumor model P388 Leukemia (intraperitoneal) in B6D2F1 (BDF1) mice
# Settings: endpoint: median survival time, higher = longer survival
# Summary of the method: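 In tumour-bearing mice, survival after compound treatment is set against the vehicle group and given as a quotient.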
# [1] = dose: 100.0 mg/kg/injection, schedule: Q01DX009 (ip), vehicle: saline with Tween-80
# [2] = dose: 50.0 mg/kg/injection, schedule: Q01DX009 (ip), vehicle: saline with Tween-80
compound,measurement,setting,value
N=[N+]=CC(=O)CCC(NC(=O)C(CCC(=O)C=[N+]=N)NC(=O)CCC(N)C(=O)O)C(=O)O (stereo not drawn),T/C,"dose: 0.1 mg/kg/injection, schedule: Q01DX009 (ip), vehicle: Klucel (hydroxypropylcellulose) (HPC)",88 % of control
same,T/C,"dose: 0.2 mg/kg/injection, schedule: Q01DX009 (ip), vehicle: Klucel (hydroxypropylcellulose) (HPC)",92 % of control
same,T/C,"dose: 0.2 mg/kg/injection, schedule: Q01DX009 (ip), vehicle: water",163 % of control
same,T/C,"dose: 0.2 mg/kg/injection, schedule: Q01DX010 (ip), vehicle: other",170 % of control
same,T/C,"dose: 0.3 mg/kg/injection, schedule: Q01DX009 (ip), vehicle: water",109 % of control
same,T/C,"dose: 0.4 mg/kg/injection, schedule: Q01DX009 (ip), vehicle: Klucel (hydroxypropylcellulose) (HPC)",94 % of control
same,T/C,"dose: 0.4 mg/kg/injection, schedule: Q01DX009 (ip), vehicle: water",150 % of control
same,T/C,"dose: 0.4 mg/kg/injection, schedule: Q01DX010 (ip), vehicle: other",210 % of control
same,T/C,"dose: 0.4 mg/kg/injection, schedule: Q01DX010 (ip), vehicle: water",172 % of control
same,T/C,"dose: 0.5 mg/kg/injection, schedule: Q01DX009 (ip), vehicle: water",86 % of control
same,T/C,"dose: 0.6 mg/kg/injection, schedule: Q01DX009 (ip), vehicle: water",90 % of control
same,T/C,"dose: 0.6 mg/kg/injection, schedule: Q01DX010 (ip), vehicle: other",120 % of control
same,T/C,"dose: 0.6 mg/kg/injection, schedule: Q01DX010 (ip), vehicle: water",109 % of control and 110 % of control
same,T/C,"dose: 0.8 mg/kg/injection, schedule: Q01DX009 (ip), vehicle: Klucel (hydroxypropylcellulose) (HPC)",102 % of control
same,T/C,"dose: 0.8 mg/kg/injection, schedule: Q01DX010 (ip), vehicle: other",110 % of control
same,T/C,"dose: 0.8 mg/kg/injection, schedule: Q01DX010 (ip), vehicle: water",100 % of control
same,T/C,"dose: 1.0 mg/kg/injection, schedule: Q01DX010 (ip), vehicle: water",90 % of control
same,T/C,"dose: 1.6 mg/kg/injection, schedule: Q01DX009 (ip), vehicle: Klucel (hydroxypropylcellulose) (HPC)",97 % of control
same,T/C,"dose: 2.5 mg/kg/injection, schedule: Q02DX005 (oral), vehicle: other",163 % of control
same,T/C,"dose: 5.0 mg/kg/injection, schedule: Q02DX005 (oral), vehicle: other",159 % of control
same,T/C,"dose: 7.5 mg/kg/injection, schedule: Q04DX003 (ip), vehicle: water",154 % of control
same,T/C,"dose: 10.0 mg/kg/injection, schedule: Q02DX005 (oral), vehicle: other",177 % of control
same,T/C,"dose: 12.5 mg/kg/injection, schedule: Q04DX003 (oral), vehicle: water",172 % of control
same,T/C,"dose: 15.0 mg/kg/injection, schedule: Q02DX005 (oral), vehicle: other",209 % of control
same,T/C,"dose: 15.0 mg/kg/injection, schedule: Q04DX003 (ip), vehicle: water",200 % of control
same,T/C,"dose: 20.0 mg/kg/injection, schedule: Q02DX005 (oral), vehicle: other",195 % of control
same,T/C,"dose: 25.0 mg/kg/injection, schedule: Q04DX003 (oral), vehicle: water",200 % of control
same,T/C,"dose: 30.0 mg/kg/injection, schedule: Q04DX003 (ip), vehicle: water",218 % of control
same,T/C,"dose: 50.0 mg/kg/injection, schedule: Q04DX003 (oral), vehicle: water",222 % of control
same,T/C,"dose: 100.0 mg/kg/injection, schedule: Q04DX003 (oral), vehicle: water",104 % of control
O=C1c2ccccc2C(=O)N1N1C(=O)c2ccccc2C1=O,T/C,[1],100 % of control
same,T/C,"dose: 200.0 mg/kg/injection, schedule: Q01DX009 (ip), vehicle: saline with Tween-80",90 % of control
same,T/C,"dose: 400.0 mg/kg/injection, schedule: Q01DX009 (ip), vehicle: saline with Tween-80",100 % of control
ON=C(c1ccccn1)c1ccccn1,T/C,"dose: 100.0 mg/kg/injection, schedule: Q04DX003 (ip), vehicle: gum acacia",100 % of control
same,T/C,"dose: 200.0 mg/kg/injection, schedule: Q04DX003 (ip), vehicle: gum acacia",104 % of control
same,T/C,"dose: 400.0 mg/kg/injection, schedule: Q04DX003 (ip), vehicle: gum acacia",104 % of control
CC(=O)N(C)c1ccc(N)cc1,T/C,"dose: 100.0 mg/kg/injection, schedule: Q04DX003 (ip), vehicle: saline",100 % of control
same,T/C,"dose: 200.0 mg/kg/injection, schedule: Q04DX003 (ip), vehicle: saline",100 % of control
same,T/C,"dose: 400.0 mg/kg/injection, schedule: Q04DX003 (ip), vehicle: saline",109 % of control
COc1ccc(S(=O)(=O)c2ccccc2)c2nonc12,T/C,"dose: 25.0 mg/kg/injection, schedule: Q01DX009 (ip), vehicle: saline with Tween-80",90 % of control
same,T/C,[2],86 % of control
same,T/C,[1],92 % of control
COC(=O)c1ccc(-c2ccccc2)cc1,T/C,"dose: 25.0 mg/kg/injection, schedule: Q04DX003 (ip), vehicle: Klucel (hydroxypropylcellulose) (HPC)",98 % of control
same,T/C,"dose: 50.0 mg/kg/injection, schedule: Q04DX003 (ip), vehicle: Klucel (hydroxypropylcellulose) (HPC)",95 % of control
same,T/C,"dose: 100.0 mg/kg/injection, schedule: Q04DX003 (ip), vehicle: Klucel (hydroxypropylcellulose) (HPC)",94 % of control
same,T/C,"dose: 200.0 mg/kg/injection, schedule: Q04DX003 (ip), vehicle: Klucel (hydroxypropylcellulose) (HPC)",101 % of control
same,T/C,"dose: 400.0 mg/kg/injection, schedule: Q04DX003 (ip), vehicle: Klucel (hydroxypropylcellulose) (HPC)",100 % of control
CC1(C(N)=O)CCCC2(C)c3ccccc3CCC12 (stereo not drawn),T/C,"dose: 100.0 mg/kg/injection, schedule: Q04DX003 (ip), vehicle: saline with Tween-80",100 % of control
same,T/C,"dose: 200.0 mg/kg/injection, schedule: Q04DX003 (ip), vehicle: saline with Tween-80",104 % of control
same,T/C,"dose: 400.0 mg/kg/injection, schedule: Q04DX003 (ip), vehicle: saline with Tween-80",100 % of control
O=CC(O)C(O)C(O)C(O)CO (stereo not drawn),T/C,"dose: 31.25 mg/kg/injection, schedule: Q01DX010 (ip), vehicle: saline",107 % of control
same,T/C,"dose: 62.5 mg/kg/injection, schedule: Q01DX010 (ip), vehicle: saline",115 % of control
same,T/C,"dose: 125.0 mg/kg/injection, schedule: Q01DX010 (ip), vehicle: saline",115 % of control
same,T/C,"dose: 0.2 grams/kg/injection, schedule: Q03DX003 (ip), vehicle: water",96 % of control
same,T/C,"dose: 250.0 mg/kg/injection, schedule: Q01DX010 (ip), vehicle: saline",107 % of control
same,T/C,"dose: 0.4 grams/kg/injection, schedule: Q03DX003 (ip), vehicle: water",97 % of control
same,T/C,"dose: 0.8 grams/kg/injection, schedule: Q03DX003 (ip), vehicle: water",102 % of control
same,T/C,"dose: 1.5 grams/kg/injection, schedule: Q03DX003 (ip), vehicle: water",93 % of control
same,T/C,"dose: 3.0 grams/kg/injection, schedule: Q03DX003 (ip), vehicle: water",102 % of control
same,T/C,"dose: 6.0 grams/kg/injection, schedule: Q03DX003 (ip), vehicle: water",98 % of control
same,T/C,"dose: 12.0 grams/kg/injection, schedule: Q03DX003 (ip), vehicle: water",95 % of control
same,T/C,"dose: 16.0 grams/kg/injection, schedule: Q03DX003 (ip), vehicle: water",101 % of control
COc1ccc(Nc2c3ccccc3nc3ccccc23)cc1,T/C,[2],208 % of control
CNC(=O)N/N=C/c1ccccc1,T/C,"dose: 75.0 mg/kg/injection, schedule: Q01DX009 (ip), vehicle: saline with Tween-80",101 % of control
same,T/C,"dose: 150.0 mg/kg/injection, schedule: Q01DX009 (ip), vehicle: saline with Tween-80",97 % of control
same,T/C,"dose: 300.0 mg/kg/injection, schedule: Q01DX009 (ip), vehicle: saline with Tween-80",92 % of control
CC(C)CCCC(C)C1CCC2C3CC=C4CC([S+](C)C)CCC4(C)C3CCC12C (stereo not drawn),T/C,"dose: 12.5 mg/kg/injection, schedule: Q01DX009 (ip), vehicle: saline",109 % of control
same,T/C,"dose: 25.0 mg/kg/injection, schedule: Q01DX009 (ip), vehicle: saline",86 % of control
O=C(NCCCl)N(CCCl)C(=O)Oc1c(Cl)c(Cl)c(Cl)c(Cl)c1Cl,T/C,"dose: 50.0 mg/kg/injection, schedule: Q01DX005 (ip), vehicle: Klucel (hydroxypropylcellulose) (HPC)",97 % of control
same,T/C,"dose: 100.0 mg/kg/injection, schedule: Q01DX005 (ip), vehicle: Klucel (hydroxypropylcellulose) (HPC)",105 % of control
same,T/C,"dose: 200.0 mg/kg/injection, schedule: Q01DX005 (ip), vehicle: Klucel (hydroxypropylcellulose) (HPC)",91 % of control
COc1ccc(CNCCNCc2ccc(OC)cc2)cc1,T/C,"dose: 12.5 mg/kg/injection, schedule: Q01DX009 (ip), vehicle: water",98 % of control
same,T/C,"dose: 25.0 mg/kg/injection, schedule: Q01DX009 (ip), vehicle: water",100 % of control
same,T/C,"dose: 25.0 mg/kg/injection, schedule: Q04DX003 (ip), vehicle: water",95 % of control
same,T/C,"dose: 50.0 mg/kg/injection, schedule: Q01DX009 (ip), vehicle: water",115 % of control
same,T/C,"dose: 50.0 mg/kg/injection, schedule: Q04DX003 (ip), vehicle: water",95 % of control
same,T/C,"dose: 100.0 mg/kg/injection, schedule: Q01DX009 (ip), vehicle: water",92 % of control and 107 % of control
same,T/C,"dose: 100.0 mg/kg/injection, schedule: Q04DX003 (ip), vehicle: water",100 % of control and 109 % of control
